In patent US11420973B2, “Amide substituted indole compounds useful as TLR inhibitors” (BRISTOL-MYERS SQUIBB COMPANY, priority 2017, dated 2022):

Experiments:
human TLR9 = human TLR9 (Homo sapiens (Human), UniProt Q9NR96); experiment: TLR9 inhibition reporter assay (HEK-Blue SEAP reporter, ODN2006 stimulation); conditions: read-out: TLR9 IC50; HEK-Blue cells overexpressing human TLR9, ODN2006 5 nM, SEAP reporter;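 further: SEAP reporter under IFN-β minimal promoter with five NF-κB and AP-1 sites, 22 h incubation, compounds 0.05 nM–50 µM, inhibition relative to agonist plus DMSO versus known inhibitor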
human TLR8 = human TLR8 (Homo sapiens (Human), UniProt Q9NR97); experiment: TLR8 inhibition reporter assay (HEK-Blue SEAP reporter, R848 stimulation); conditions: read-out: TLR8 IC50; HEK-Blue cells overexpressing human TLR8, R848 15.9 μM, SEAP reporter;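 further: SEAP driven by IFN-β minimal promoter with NF-κB and AP-1 sites, 22 h incubation, compounds 0.05 nM–50 µM, inhibition scaled between agonist plus DMSO and reference inhibitor wells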
human TLR7 = human TLR7 (Homo sapiens (Human), UniProt Q9NYK1); experiment: TLR7 inhibition reporter assay (HEK-Blue SEAP reporter, gardiquimod stimulation); assay type: cell-based; conditions: HEK-Blue cells overexpressing human TLR7, gardiquimod 7.5 μM
Chain of human TLR7 (Q9NYK1 27-1049): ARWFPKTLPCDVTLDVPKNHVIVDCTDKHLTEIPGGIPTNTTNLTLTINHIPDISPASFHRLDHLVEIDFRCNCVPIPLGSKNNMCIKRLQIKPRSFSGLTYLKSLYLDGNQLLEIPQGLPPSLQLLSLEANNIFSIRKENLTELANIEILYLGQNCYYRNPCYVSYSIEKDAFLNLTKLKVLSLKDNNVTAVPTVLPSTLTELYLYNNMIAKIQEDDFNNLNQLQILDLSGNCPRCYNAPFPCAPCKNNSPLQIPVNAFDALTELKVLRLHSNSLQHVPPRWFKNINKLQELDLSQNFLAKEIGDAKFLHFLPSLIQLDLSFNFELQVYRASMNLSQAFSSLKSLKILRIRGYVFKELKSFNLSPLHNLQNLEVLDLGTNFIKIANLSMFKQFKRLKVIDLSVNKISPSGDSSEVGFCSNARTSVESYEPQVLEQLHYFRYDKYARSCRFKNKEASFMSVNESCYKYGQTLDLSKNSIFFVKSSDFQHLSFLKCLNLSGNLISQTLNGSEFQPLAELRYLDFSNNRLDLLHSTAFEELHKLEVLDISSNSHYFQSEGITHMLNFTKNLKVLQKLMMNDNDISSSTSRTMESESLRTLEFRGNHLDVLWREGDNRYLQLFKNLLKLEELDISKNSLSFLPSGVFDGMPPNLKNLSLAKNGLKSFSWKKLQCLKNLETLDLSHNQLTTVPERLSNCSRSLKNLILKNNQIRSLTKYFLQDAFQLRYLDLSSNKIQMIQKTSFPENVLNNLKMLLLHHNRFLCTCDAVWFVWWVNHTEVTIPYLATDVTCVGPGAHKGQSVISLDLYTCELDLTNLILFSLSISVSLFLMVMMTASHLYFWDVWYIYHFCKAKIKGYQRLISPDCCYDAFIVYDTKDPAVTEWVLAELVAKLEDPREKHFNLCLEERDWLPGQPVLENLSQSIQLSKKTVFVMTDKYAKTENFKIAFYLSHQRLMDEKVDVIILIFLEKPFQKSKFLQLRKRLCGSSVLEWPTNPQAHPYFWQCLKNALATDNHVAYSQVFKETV
Description: HEK-Blue™-cells (Invivogen) overexpressing human TLR7, TLR8 or TLR9 receptors were used for screening inhibitors of these receptors using an inducible SEAP (secreted embryonic alkaline phosphatase) reporter gene under the control of the IFN-β minimal promoter fused to five NF-κB and AP-1-binding sites. Briefly, cells are seeded into Greiner 384 well plates (15000 cells per well for TLR7, 20,000 for TLR8 and 25,000 for TLR9) and then treated with test compounds in DMSO to yield a final dose response concentration range of 0.05 nM-50 μM. After a 30 minute compound pre-treatment at room temperature, the cells are then stimulated with a TLR7 ligand (gardiquimod at a final concentration of 7.5 μM), TLR8 ligand (R848 at a final concentration of 15.9 μM) or TLR9 ligand (ODN2006 at a final concentration of 5 nM) to activate NF-κB and AP-1 which induce the production of SEAP. After a 22 hour incubation at 37° C., 5% CO2, SEAP levels are determined with the addition of HEK-Blue™ Detection reagent (Invivogen), a cell culture medium that allows for detection of SEAP, according to manufacturer's specifications.

Chain of human TLR9 (Q9NR96 26-1032): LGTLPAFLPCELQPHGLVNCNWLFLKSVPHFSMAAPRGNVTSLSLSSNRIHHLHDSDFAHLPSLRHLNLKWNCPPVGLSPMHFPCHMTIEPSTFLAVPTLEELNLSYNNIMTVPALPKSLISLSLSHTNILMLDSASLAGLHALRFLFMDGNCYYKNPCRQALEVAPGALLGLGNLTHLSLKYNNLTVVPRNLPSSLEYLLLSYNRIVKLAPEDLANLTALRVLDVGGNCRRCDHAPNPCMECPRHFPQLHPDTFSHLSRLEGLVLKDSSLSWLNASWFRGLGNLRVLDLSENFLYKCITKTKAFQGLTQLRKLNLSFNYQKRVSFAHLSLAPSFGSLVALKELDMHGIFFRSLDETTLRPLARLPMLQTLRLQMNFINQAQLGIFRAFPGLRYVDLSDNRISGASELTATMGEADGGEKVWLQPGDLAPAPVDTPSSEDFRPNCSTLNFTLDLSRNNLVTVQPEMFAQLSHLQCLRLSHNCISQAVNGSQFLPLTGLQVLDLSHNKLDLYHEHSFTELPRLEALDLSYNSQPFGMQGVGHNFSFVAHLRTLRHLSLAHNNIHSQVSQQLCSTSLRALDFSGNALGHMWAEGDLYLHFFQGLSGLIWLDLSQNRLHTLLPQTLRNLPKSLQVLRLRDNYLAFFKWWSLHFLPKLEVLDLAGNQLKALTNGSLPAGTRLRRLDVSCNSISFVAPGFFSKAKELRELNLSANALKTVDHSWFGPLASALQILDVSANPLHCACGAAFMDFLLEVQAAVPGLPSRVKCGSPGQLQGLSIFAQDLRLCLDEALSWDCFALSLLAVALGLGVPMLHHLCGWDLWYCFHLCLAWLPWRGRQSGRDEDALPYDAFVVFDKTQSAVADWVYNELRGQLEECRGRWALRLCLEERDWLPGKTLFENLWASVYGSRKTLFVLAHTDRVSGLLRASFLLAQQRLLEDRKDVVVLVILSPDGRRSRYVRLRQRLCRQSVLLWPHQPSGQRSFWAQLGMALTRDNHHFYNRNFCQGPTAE
Chain of human TLR8 (Q9NR97 27-1041): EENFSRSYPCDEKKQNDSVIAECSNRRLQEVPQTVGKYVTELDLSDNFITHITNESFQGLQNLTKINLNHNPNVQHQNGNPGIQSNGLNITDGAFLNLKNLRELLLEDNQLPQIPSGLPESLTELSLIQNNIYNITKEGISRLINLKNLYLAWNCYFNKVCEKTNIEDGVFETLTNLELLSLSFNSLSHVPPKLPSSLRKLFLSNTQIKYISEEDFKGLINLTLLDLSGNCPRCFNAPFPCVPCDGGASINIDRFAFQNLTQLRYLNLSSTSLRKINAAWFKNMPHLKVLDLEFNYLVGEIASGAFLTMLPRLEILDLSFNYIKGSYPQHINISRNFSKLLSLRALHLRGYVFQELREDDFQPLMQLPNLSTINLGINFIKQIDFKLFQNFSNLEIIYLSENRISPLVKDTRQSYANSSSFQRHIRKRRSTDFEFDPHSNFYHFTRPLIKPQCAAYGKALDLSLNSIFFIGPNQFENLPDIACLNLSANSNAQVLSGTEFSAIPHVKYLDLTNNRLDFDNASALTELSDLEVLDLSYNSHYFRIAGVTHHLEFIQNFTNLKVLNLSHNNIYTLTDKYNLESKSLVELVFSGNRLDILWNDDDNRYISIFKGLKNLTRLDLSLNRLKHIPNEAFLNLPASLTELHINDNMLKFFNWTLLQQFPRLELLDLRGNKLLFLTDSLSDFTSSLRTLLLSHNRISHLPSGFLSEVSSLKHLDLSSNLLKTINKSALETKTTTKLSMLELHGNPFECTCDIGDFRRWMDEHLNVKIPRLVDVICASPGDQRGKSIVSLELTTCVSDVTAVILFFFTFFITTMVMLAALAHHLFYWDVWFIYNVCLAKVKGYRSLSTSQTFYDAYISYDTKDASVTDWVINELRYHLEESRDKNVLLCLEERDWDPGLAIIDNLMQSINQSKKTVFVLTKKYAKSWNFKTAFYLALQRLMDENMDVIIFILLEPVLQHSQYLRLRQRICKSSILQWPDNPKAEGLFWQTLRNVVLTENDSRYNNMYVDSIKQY

Row | SMILES | IC50 (human TLR9) | IC50 (human TLR8) | IC50 (human TLR7)
1 | Cc1cc(-c2[nH]c3ccc(C(C)(C)C(=O)N4CCC(CN)CC4)cc3c2C(C)C)ccn1 [Example 158, 1-(4-(aminomethyl)piperidin-1-yl)-2-(3-isopropyl-2-(2-methylpyridin-4-yl)-1H-indol-5-yl)-2-methylpropan-1-one] | 3030 nM | 500 nM | 79 nM
2 | Cc1cc(-c2[nH]c3ccc(C(C)(C)C(=O)N4CC5CC(C4)C5N)cc3c2C(C)C)ccn1 (stereo not drawn) [Example 148, 1-(6-amino-3-azabicyclo[3.1.1]heptan-3-yl)-2-(3-isopropyl-2-(2-methylpyridin-4-yl)-1H-indol-5-yl)-2-methylpropan-1-one] | 2640 nM | 79 nM | 88 nM
3 | Cc1cc(-c2[nH]c3ccc(C(C)(C)C(=O)NC4CCCC(N)C4)cc3c2C(C)C)ccn1 (stereo not drawn) [Example 168, N-(3-aminocyclohexyl)-2-(3-isopropyl-2-(2-methylpyridin-4-yl)-1H-indol-5-yl)-2-methylpropanamide] | 2670 nM | 44 nM | 96 nM
4 | Cc1cc(-c2[nH]c3ccc(C(C)(C)C(=O)NCC4(O)CN5CCC4CC5)cc3c2C(C)C)ccn1 (stereo not drawn) [Example 174, N-((3-hydroxyquinuclidin-3-yl)methyl)-2-(3-isopropyl-2-(2-methylpyridin-4-yl)-1H-indol-5-yl)-2-methylpropanamide] | 2060 nM | 550 nM | 54 nM
5 | Cc1cc(-c2[nH]c3ccc(C(C)(C)C(=O)N4CCC5(CCNC5)C4)cc3c2C(C)C)ccn1 (stereo not drawn) [Example 178, 2-(3-isopropyl-2-(2-methylpyridin-4-yl)-1H-indol-5-yl)-2-methyl-1-(2,7-diazaspiro[4.4]nonan-2-yl)propan-1-one] | 1660 nM | 859 nM | 61 nM
6 | Cc1cc(-c2[nH]c3ccc(C(C)(C)C(=O)NC4CCC5CNCC54)cc3c2C(C)C)ccn1 (stereo not drawn) [Example 146, 2-(3-isopropyl-2-(2-methylpyridin-4-yl)-1H-indol-5-yl)-2-methyl-N-(octahydrocyclopenta[c]pyrrol-4-yl)propanamide] | 979 nM | 122 nM | 160 nM
7 | COc1ccc(-c2[nH]c3ccc(C(=O)N4CC5CN(CC(=O)N(C)C)CC5C4)cc3c2C(C)C)cc1OC (stereo not drawn) [Example 6, 2-{5-[2-(3,4-dimethoxyphenyl)-3-(propan-2-yl)-1H-indole-5-carbonyl]-octahydropyrrolo [3,4-c]pyrrol-2-yl}-N,N-dimethylacetamide] | 5230 nM | 180 nM | 180 nM
8 | Cc1cc(-c2[nH]c3ccc(C(C)C(=O)N[C@@H]4CCCNC4)cc3c2C(C)C)ccn1 (stereo partly drawn) [Example 196, 2-(3-isopropyl-2-(2-methylpyridin-4-yl)-1H-indol-5-yl)-N—((R)-piperidin-3-yl)propanamide] | 866 nM | 88 nM | 51 nM
9 | Cc1cc(-c2[nH]c3ccc(C(C)(C)C(=O)N4CC5CN(C)CC5C4)cc3c2C(C)C)ccn1 (stereo not drawn) [Example 149, 2-(3-isopropyl-2-(2-methylpyridin-4-yl)-1H-indol-5-yl)-2-methyl-1-(5-methylhexahydropyrrolo[3,4-c]pyrrol-2(1H)-yl)propan-1-one] | 3050 nM | 277 nM | 17 nM
10 | COc1ccc(-c2[nH]c3ccc(C(=O)N4CC5CN(CC(=O)N(C)C)CC5C4)cc3c2CC(F)(F)F)cc1OC (stereo not drawn) [Example 90, 2-(5-(2-(3,4-dimethoxyphenyl)-3-(2,2,2-trifluoroethyl)-1H-indole-5-carbonyl)hexahydropyrrolo[3,4-c]pyrrol-2(1H)-yl)-N,N-dimethylacetamide] | 4050 nM | 344 nM | 866 nM
11 | Cc1cc(-c2[nH]c3ccc(C(C)(C)C(=O)NC4CCNCC4)cc3c2C(C)C)ccn1 [Example 143, 2-(3-isopropyl-2-(2-methylpyridin-4-yl)-1H-indol-5-yl)-2-methyl-N-(piperidin-4-yl)propanamide] | 562 nM | 147 nM | 35 nM
12 | Cc1cc(-c2[nH]c3ccc(C(C)(C)C(=O)NC4C[C@H]5CC[C@@H](C4)N5C)cc3c2C(C)C)ccn1 (stereo partly drawn) [Example 166, 2-(3-isopropyl-2-(2-methylpyridin-4-yl)-1H-indol-5-yl)-2-methyl-N-((1R,5S)-8-methyl-8-azabicyclo[3.2.1]octan-3-yl)propanamide] | 8230 nM | 135 nM | 22 nM

Continued, values first:

Row | IC50 (human TLR9) | IC50 (human TLR8) | IC50 (human TLR7) | SMILES
13 | 5090 nM | 1030 nM | 164 nM | Cc1cc(-c2[nH]c3ccc(C(C)(C)C(=O)NC[C@H]4CCNC4)cc3c2C(C)C)ccn1 [Example 160, (S)-2-(3-isopropyl-2-(2-methylpyridin-4-yl)-1H-indol-5-yl)-2-methyl-N-(pyrrolidin-3-ylmethyl)propanamide]
14 | > 50000 nM | 818 nM | 748 nM | Cc1cc(-c2[nH]c3ccc(C(C)C(=O)NC[C@@H](F)C(C)(C)O)cc3c2C(C)C)ccn1 (stereo partly drawn) [Example 130, N—((R)-2-fluoro-3-hydroxy-3-methylbutyl)-2-(3-isopropyl-2-(2-methylpyridin-4-yl)-1H-indol-5-yl)propanamide]
15 | 375 nM | 49 nM | 30 nM | COc1ccc(-c2[nH]c3ccc(C(=O)N4CC5CNCC5C4)cc3c2C(C)C)cc1OC (stereo not drawn) [Example 1, 2-(3,4-dimethoxyphenyl)-5-{octahydropyrrolo[3,4-c]pyrrole-2-carbonyl}-3-(propan-2-yl)-1H-indole]
16 | 1380 nM | 43 nM | 43 nM | COc1ccc(-c2[nH]c3ccc(C(=O)N4C[C@@H]5C[C@H]4CN5)cc3c2C(C)C)cc1OC [Example 5, ((1S,4S)-2,5-diazabicyclo[2.2.1]heptan-2-yl)(2-(3,4-dimethoxyphenyl)-3-isopropyl-1H-indol-5-yl)methanone]
17 | 7310 nM | 2570 nM | 1290 nM | Cc1cc(-c2[nH]c3ccc(C(C)C(=O)NC[C@@H]4CCNC4)cc3c2C(C)C)ccn1 (stereo partly drawn) [Example 208, 2-(3-isopropyl-2-(2-methylpyridin-4-yl)-1H-indol-5-yl)-N—(((R)-pyrrolidin-3-yl)methyl)propanamide]
18 | 5220 nM | 602 nM | 67 nM | Cc1cc(-c2[nH]c3ccc(C(C)(C)C(=O)NCCC4CCCNC4)cc3c2C(C)C)ccn1 (stereo not drawn) [Example 171, 2-(3-isopropyl-2-(2-methylpyridin-4-yl)-1H-indol-5-yl)-2-methyl-N-(2-(piperidin-3-yl)ethyl)propanamide]
19 | > 50000 nM | 105 nM | 51 nM | COCCN(C)C(=O)c1ccc2[nH]c(-c3cc(C)nc(C)c3)c(C(C)C)c2c1 [Example 106, 2-(2,6-dimethylpyridin-4-yl)-3-isopropyl-N-(2-methoxyethyl)-N-methyl-1H-indole-5-carboxamide]
20 | 985 nM | 3.6 nM | 117 nM | Cc1cc(-c2[nH]c3ccc(C(=O)N4CC5CN(C(C)C)CC5C4)cc3c2C(C)C)ccn1 (stereo not drawn) [Example 116, (3-isopropyl-2-(2-methylpyridin-4-yl)-1H-indol-5-yl)(5-isopropylhexahydropyrrolo[3,4-c]pyrrol-2(1H)-yl)methanone]
21 | 516 nM | 3.6 nM | 50 nM | Cc1cc(-c2[nH]c3ccc(C(=O)NCCCN(C)C)cc3c2C(C)C)cc(C)n1 [Example 95, N-(3-(dimethylamino)propyl)-2-(2,6-dimethylpyridin-4-yl)-3-isopropyl-1H-indole-5-carboxamide]
